Here are results for 1 compound from patent publication US20250120975A1, “INTEGRIN INHIBITORS FOR TREATMENT OF PRIMARY SCLEROSING CHOLANGITIS” (Pliant Therapeutics, Inc., priority 2023, published 2025).

Data set [1] in a line: Plasma and liver concentrations in BALB/c.Mdr2−/− mice at harvest. The data set is classed as in vivo, mouse. On the procedure: (S)-4-((2-methoxyethyl)(4-(5,6,7,8-tetrahydro-1,8-naphthyridin-2-yl)butyl)amino)-2-(quinazolin-4-ylamino)butanoic acid (or PBS) was dosed once daily orally at 100 mg/kg, 300 mg/kg or 1000 mg/kg (see Table B-2) starting at 6 weeks after birth of the subject and continuing for 6 weeks. All animals were euthanized and necropsied at the end of week 12.
Plasma samples were assayed by a qualified non-GLP bioanalytical method. Liver samples were homogenized in five volumes of ice-cold water. For plasma and liver homogenate, 20 μL of sample was extracted with 100 μL methanol: acetonitrile (5:95 v: v) containing 10 ng/mL internal standard. The solution was centrifuged at 4000 RPM for 5 minutes and 70 μL of supernatant transferred to injection plate containing 70 μl water. An aliquot of 10 μL was injected to a Sciex 4000 system. Concentrations of (S)-4-((2-methoxyethyl)(4-(5,6,7,8-tetrahydro-1,8-naphthyridin-2-yl)butyl)amino)-2-(quinazolin-4-ylamino)butanoic acid in mouse plasma and liver homogenate were determined by using Analyst 1.6 software (AB Sciex, Foster City, CA). […] Using this bioanalytical method and four-times dilution of the samples, (S)-4-((2-methoxyethyl)(4-(5,6,7,8-tetrahydro-1,8-naphthyridin-2-yl)butyl)amino)-2-(quinazolin-4-ylamino)butanoic acid can be quantified in the range of 0.5-8000 ng/mL in plasma and liver homogenate.

Data set [2] relates to BALB/c.Mdr2−/− mouse model of biliary fibrosis. Briefly: Direct (invasive) portal venous pressure measurement. The data set is classed as in vivo. As to conditions: 100, 300, 1000 mg/kg PO/QD, 6 weeks. On the procedure:
Antifibrotic activity of (S)-4-((2-methoxyethyl)(4-(5,6,7,8-tetrahydro-1,8-naphthyridin-2-yl)butyl)amino)-2-(quinazolin-4-ylamino)butanoic acid was tested in the BALBc.Mdr2−/− murine model of liver biliary fibrosis. […] BALBc.Mdr2−/− mice develop periductular fibrotic lesions at 4 weeks with rapid and progressive fibrotic progression. Bridging fibrosis and early cirrhosis is observed at 12 weeks along with severe portal hypertension and enhanced collagen deposition.
The tissue source is BALBc.Mdr2-/−male mice that were 6 weeks old. The Mdr2(abcb4)−/− mouse model of sclerosing cholangitis has been previously described and is a model of spontaneously progressive hepatic fibrosis in mice with deletion of the biliary phospholipid flippase on fibrosis-susceptible background (Mdr2(abcb4)^−/−. BALB/c mouse). See N. Ikenaga, et al. (2015) Am J Pathol. 185 (2): 325-334, the entire contents of which are hereby incorporated by reference in their entirety. […]
After laparotomy, the portal vein of the mouse subject was cannulated through an ileocolic vein, and portal pressure was measured directly by inserting a 1.2-Fr high-fidelity pressure catheter. Pressure signals were recorded at 2 kHz for 5 Min, and analyzed using PowerLab software. […]

A further data set deals with αVβ6 integrin (Homo sapiens, UniProt P06756+P18564). Briefly: Inhibition of αVβ6 integrin (IC50). The data set is classed as binding. Particulars: read-out: 50% inhibitory concentration [IC50] αVβ6.
A short description of data set [3]: Effect of food on pharmacokinetics of the solution. The data set is classed as in vivo.
Data set [4] deals with subjects with PSC and suspected liver fibrosis. Briefly: Phase 2a INTEGRIS-PSC: liver biochemistry (ALP, ALT, AST, bilirubin). The data set is classed as in vivo, human. Here is the method:
Fasting blood and urine specimens for safety laboratory assessments were or will be obtained at the time points specified in the Schedule of Events (see Table B-4, Table B-5, and Table B-6). Specimens are obtained after at least an 8-hour fast. Subjects are in a seated or supine position during blood collection. Creatinine clearance is calculated using the Cockcroft-Gault equation.
Absolute and relative changes from Baseline in liver fibrosis biomarkers (including PRO-C3 and ELF) and in ALP are presented in numerical and graphical forms by treatment and dose utilizing data from the timepoints specified in the Schedule of Events. Changes from Baseline to Week 12(Parts 1 and 2) and Week 24 (Part 3) in magnetic resonance (MR)-based liver imaging are also evaluated, as well as changes in PROs.

Data set [5] has the same test system. In words: Phase 2a INTEGRIS-PSC: transient elastography (FibroScan) liver stiffness. The data set is classed as in vivo, human. Particulars: 320 mg, Week 24, compared to an increase on placebo, Example B-5. An excerpt: Transient elastography (TE) utilizes an ultrasound shear wave to assess the elasticity of the liver, that is, how “stiff” the liver tissue is. Fibrosis causes stiffening or hardening of tissue, and TE can be used to diagnose fibrosis and determine the degree of fibrosis. The FibroScan® device (FibroScan® is a registered trademark of ECHOSENS, Paris, France, for medical equipment and software) can be used for TE. (Kemp W, Roberts S., Aust Fam Physician. 2013 July; 42(7):468-71; and Ozturk A. et al., Abdom Radiol (NY), 2022 September; 47 (9): 3037-3050; each of which are hereby incorporated by reference in their entireties).
Each subject underwent an ultrasound-based transient elastography (FibroScan®) assessment at the screening and Week 12 study visits (Parts 1 and 2) and will undergo an ultrasound-based transient elastography (FibroScan®) assessment at the screening, at Week 12 study visits, and at Week 24 (Part 3 only). FibroScan® is a noninvasive technique that uses ultrasound-based transient elastography (TE) to assess liver stiffness measurement (LSM) and determine likelihood of clinically meaningful liver fibrosis.
The LSM, as assessed by TE, is expressed in kilopascals (kPa). Larger values (normal range approximately between 2 and 7 kPa) indicate a greater likelihood of clinically meaningful liver fibrosis. See H. Ehlken, et al. (2016) PloS ONE 11 (10): e0164224 and C. […]

Sequence of αVβ6 integrin (P06756 31-1048): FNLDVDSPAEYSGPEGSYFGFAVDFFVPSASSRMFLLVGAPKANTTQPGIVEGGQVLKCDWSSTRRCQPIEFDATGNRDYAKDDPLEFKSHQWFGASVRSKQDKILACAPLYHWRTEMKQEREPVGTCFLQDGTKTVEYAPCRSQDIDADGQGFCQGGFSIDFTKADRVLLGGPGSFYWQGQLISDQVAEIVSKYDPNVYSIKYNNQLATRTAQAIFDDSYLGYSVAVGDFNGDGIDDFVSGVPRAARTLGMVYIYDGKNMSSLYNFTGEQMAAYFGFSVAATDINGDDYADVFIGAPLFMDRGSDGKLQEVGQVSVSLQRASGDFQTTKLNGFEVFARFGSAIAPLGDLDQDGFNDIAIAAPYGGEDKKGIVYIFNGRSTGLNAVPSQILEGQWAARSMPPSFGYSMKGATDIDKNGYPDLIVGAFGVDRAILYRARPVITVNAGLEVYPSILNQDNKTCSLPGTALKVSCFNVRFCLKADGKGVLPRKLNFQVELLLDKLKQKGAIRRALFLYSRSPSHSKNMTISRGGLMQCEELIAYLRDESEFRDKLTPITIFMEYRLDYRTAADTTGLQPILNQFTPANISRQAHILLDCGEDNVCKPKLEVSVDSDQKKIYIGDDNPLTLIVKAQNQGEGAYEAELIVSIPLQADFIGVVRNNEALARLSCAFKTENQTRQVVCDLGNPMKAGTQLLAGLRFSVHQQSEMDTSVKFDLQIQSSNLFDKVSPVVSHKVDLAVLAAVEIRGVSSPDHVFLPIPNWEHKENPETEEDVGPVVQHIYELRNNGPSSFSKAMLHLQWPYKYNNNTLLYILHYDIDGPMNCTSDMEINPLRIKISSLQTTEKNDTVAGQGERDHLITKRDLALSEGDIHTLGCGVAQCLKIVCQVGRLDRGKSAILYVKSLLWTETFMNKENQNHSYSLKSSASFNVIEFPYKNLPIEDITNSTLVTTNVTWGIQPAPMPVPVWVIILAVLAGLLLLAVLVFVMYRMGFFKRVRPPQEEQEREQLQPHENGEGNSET
Sequence of αVβ6 integrin (P18564 22-788): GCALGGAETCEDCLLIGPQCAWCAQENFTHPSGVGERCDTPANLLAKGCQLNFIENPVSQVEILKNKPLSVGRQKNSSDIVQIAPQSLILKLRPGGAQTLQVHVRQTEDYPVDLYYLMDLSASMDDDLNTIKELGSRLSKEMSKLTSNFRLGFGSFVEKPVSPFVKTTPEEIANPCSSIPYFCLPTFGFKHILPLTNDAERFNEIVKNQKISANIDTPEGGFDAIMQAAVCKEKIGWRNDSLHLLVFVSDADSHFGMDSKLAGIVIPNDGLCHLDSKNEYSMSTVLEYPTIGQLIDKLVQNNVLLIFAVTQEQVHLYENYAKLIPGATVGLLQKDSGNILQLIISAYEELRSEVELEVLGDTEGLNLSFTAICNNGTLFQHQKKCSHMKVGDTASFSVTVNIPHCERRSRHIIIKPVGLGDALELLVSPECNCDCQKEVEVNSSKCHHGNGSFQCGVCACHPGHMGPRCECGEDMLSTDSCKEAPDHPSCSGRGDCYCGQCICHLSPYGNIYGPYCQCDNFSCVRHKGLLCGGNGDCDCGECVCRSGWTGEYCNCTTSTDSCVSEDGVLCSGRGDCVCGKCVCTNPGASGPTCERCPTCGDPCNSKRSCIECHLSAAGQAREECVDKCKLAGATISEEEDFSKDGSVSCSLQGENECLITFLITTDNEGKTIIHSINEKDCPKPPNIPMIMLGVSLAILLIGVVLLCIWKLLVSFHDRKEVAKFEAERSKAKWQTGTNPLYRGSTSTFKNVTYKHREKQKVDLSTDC

On to `COCCN(CCCCc1ccc2c(n1)NCCC2)CC[C@H](Nc1ncnc2ccccc12)C(=O)O` [Bexotegrast, (S)-4-((2-methoxyethyl)(4-(5,6,7,8-tetrahydro-1,8-naphthyridin-2-yl)butyl)amino)-2-(quinazolin-4-ylamino)butanoic acid], for which the “plasma and liver concentrations, comparison of dose groups” value in data set [1] (100, 300 and 1000 mg/kg PO/QD, 6 weeks) is reported as “higher levels in the 1000 mg/kg group”. Besides, the Kp at 6 weeks in data set [1] (mouse, liver (relative to plasma), BALB/c.Mdr2−/− mice, after 6 weeks of PO/QD dosing, at harvest, read-out: Liver levels (ng/g) relative to the levels seen in the plasma (ng/mL)) lay in the range of 3 to 5. Besides, in data set [2], the portal venous pressure entry is reported as “did not induce any changes”. In addition, on αVβ6 integrin, the IC50 turned out to be 5.7 nM. Also, in data set [3], the “decrease of AUCinf in the fed state relative to the fasted state” value came to 37% and the “decrease of Cmax in the fed state relative to the fasted state” value is given as 52%. In addition, the “ALP, all participants” value in data set [4] (320 mg, over 24 weeks, compared to increased levels on placebo, Example B-5) is “statistically significant reduction”. For the same compound, in data set [4] (320 mg, over 24 weeks, Example B-5), the “ALP, patients with elevated baseline ALP values” is on record as “greater reductions”. For the same compound, in data set [4] (40, 80, 160 mg, Week 12, Example B-3), the “ALP relative to placebo” value was “dose-dependent trend for reduction in ALP”. In addition, in data set [4] (all doses versus increases in placebo, Week 12, Example B-3), the “liver chemistry levels (ALT, AST, total and direct bilirubin)” value is “stabilization of liver chemistry levels”. The “ALP relative to the placebo” value in data set [4] (subgroup with elevated ALP (>ULN) at Baseline, Week 12, Example B-4) is “stabilized”. Also, the “median liver stiffness by transient elastography (TE)” value in data set [5] is given as “numerical reduction”. Moreover, the “median liver stiffness by transient elastography (TE)” value in data set [5] (listed as bexotegrast) is listed as “decrease”.
